Reference: patent publication US6046238A, “Method for treating or preventing the spread of acne vulgaris” (TriStrata, Inc., priority 1999, dated 2000)
≈ marks a conversion by molar mass, not a printed value. Read-outs that look alike come from different tables or passages of the source.

Experiments:
[1] = axillary antiodor effectiveness (treatment); format: in vivo, human; settings: 0.5%
Excerpt: In another study the subjects were instructed not to take a shower in the morning. After the foul odor developed in both axillae, the subjects were instructed to apply the test composition containing 0.5% phenyl 2-acetoxyethanoic acid or diphenyl 2-acetoxyethanoic acid on the left underarm area and the control vehicle on the right underarm area. Topical applications were made once daily for several days.
Usually the left underarm ceased emanating any detectable foul odor after 1 day of topical use. The subjects were instructed at this time to apply the test composition containing 0.5% phenyl 2-acetoxyethanoic acid or diphenyl 2-acetoxyethanoic acid on the right underarm area also. Topical applications were made once daily for several days. The right axilla ceased to emanate any detectable foul odor after 1 to 2 days of topical use.

[2] = test system: Brevibacterium epidermis; test: MIC Agar Dilution Test, Brevibacterium epidermis; format: cell-based; settings: B. epidermis
Excerpt: The following strains of microorganisms were used in Minimum Inhibitory Concentration (MIC) tests for phenyl 2-acetoxyethanoic acid in this example and for benzoyl peroxide, chlorhexidine gluconate and triclosan in the following examples. In total, five strains were used for S. aureus, five strains were used for S. epidermidis, two strains were used for M. sedentarius, three strains were used for M. luteus, two strains were used for B. epidermis, three strains were used for C. minutissium, one strain was used for S. marcescens, three strains were used for P. aeruginosa, four strains were used for E. coli, and thirty-two strains were used for P. acnes.
Antimicrobial effects were determined based on MIC Agar Dilution Test utilizing Trypticase Soy Agar II (BBL) incorporation plates with and without 10% intralipid (Kabi Pharmacia Inc.). Initially, phenyl 2-acetoxyethanoic acid was prepared as a 2 mg/ml (0.2%) solution in water. This solution with serial dilution was incorporated into the test agar plates. The MIC test gave similar results when the same species but a different strain was used.
Under the same test conditions described in Example 1, benzoyl peroxide was prepared as a 2.5 mg/ml (0.25%) solution in water. This solution with serial dilution was incorporated into the test agar plates. Typical test results are shown as follows.
Under the same test conditions described in Example 1, chlorhexidine gluconate was prepared as a 2 mg/ml (0.2%) solution in water. This solution with serial dilution was incorporated into the test agar plates. Typical test results are shown as follows.
Under the same test conditions described in Example 1, triclosan was prepared as a 10 mg/ml (1%) solution in water. This solution with serial dilution was incorporated into the test agar plates. Typical test results are shown as follows.
Ten different species of bacteria were used in Minimum Inhibitory Concentration (MIC) tests. The bacteria include S. aureus, S. epidermidis,M. sedentarius, M. luteus, B. epidermis, C. minutissium, S. marcescens, P. aeruginosa, E. coli, and P. acnes. In addition various sources and strains of these bacteria were also included in the tests, and up to 32 different strains of P. acnes were used.
The test substance selected from phenyl 2-acetoxyethanoic acid, benzoyl peroxide, chlorhexidine gluconate and triclosan was dissolved in water, and the solution with serial dilution was incorporated into the test agar plates. The plates containing different concentrations of test substance were inoculated with a strain of bacterium. MIC is defined as the lowest concentration of the test substance in the plate in which there is no growth of the microorganism.

## CC(=O)OC(C(=O)O)c1ccccc1 (centres unmarked) [phenyl 2-acetoxyethanoic acid]
[1]; topical
  overall axillary antiodor effectiveness: topically effective in eradicating the axillary foul odor
[1]; continued, once daily for several days
  left axilla on continued use: continued to maintain the condition free of any offensive foul odor
[1]; no-shower study, left side
  time after which left underarm usually ceased emanating any detectable foul odor: 1 days
[1]; no-shower study, once daily
  intensity of foul odor, left underarm: diminished in intensity of foul odor after one to two days of topical application
[1]; Example 6, once daily, one person, left side
  time after which left underarm ceased emanating any detectable foul odor: 1 days
[1]; Example 6, right side, formerly vehicle
  time after which right axilla ceased to emanate any detectable foul odor: 1 days
[2]; 10% intralipid, read-out: MIC Lipid
  MIC: 1000 µg/mL (≈ 5.15 mM)
[2]; no lipid, read-out: MIC No Lipid
  MIC: 1000 µg/mL (≈ 5.15 mM)
